What was measured:
[1] = Tissue distribution of radiolabeled (14C) compound, oral 5 mg/kg; format: in vivo; settings: Long-Evans rats, oral 5 mg/kg (100 μCi/kg), up to 168 hours
Method: Plasma, liver, small intestine, cecum, kidney, lung, heart and skin tissue samples were collected up to 168 hours, and the amount of radioactive material at various time points was measured.

MAO-A = target: T1, MAO-A (Homo sapiens, UniProt P21397); assay: Biochemical activity, MAO-A
T1 sequence (P21397 1-527): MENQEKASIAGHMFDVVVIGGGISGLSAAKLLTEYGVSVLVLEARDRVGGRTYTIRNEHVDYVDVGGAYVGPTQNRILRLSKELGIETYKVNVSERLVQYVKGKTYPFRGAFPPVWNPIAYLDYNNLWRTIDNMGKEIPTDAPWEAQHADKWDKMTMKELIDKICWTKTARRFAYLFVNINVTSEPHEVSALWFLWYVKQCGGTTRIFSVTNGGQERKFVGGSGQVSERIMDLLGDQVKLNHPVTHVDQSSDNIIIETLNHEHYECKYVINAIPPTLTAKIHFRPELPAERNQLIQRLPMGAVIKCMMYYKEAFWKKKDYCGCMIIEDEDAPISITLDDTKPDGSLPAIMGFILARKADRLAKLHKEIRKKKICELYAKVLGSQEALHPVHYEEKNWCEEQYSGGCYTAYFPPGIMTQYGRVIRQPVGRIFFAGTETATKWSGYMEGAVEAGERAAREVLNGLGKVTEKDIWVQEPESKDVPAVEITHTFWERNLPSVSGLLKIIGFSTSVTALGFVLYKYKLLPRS

MAO-B = target: T2, MAO-B (Homo sapiens, UniProt P27338); assay: Biochemical activity, MAO-B
T2 sequence (P27338 1-520): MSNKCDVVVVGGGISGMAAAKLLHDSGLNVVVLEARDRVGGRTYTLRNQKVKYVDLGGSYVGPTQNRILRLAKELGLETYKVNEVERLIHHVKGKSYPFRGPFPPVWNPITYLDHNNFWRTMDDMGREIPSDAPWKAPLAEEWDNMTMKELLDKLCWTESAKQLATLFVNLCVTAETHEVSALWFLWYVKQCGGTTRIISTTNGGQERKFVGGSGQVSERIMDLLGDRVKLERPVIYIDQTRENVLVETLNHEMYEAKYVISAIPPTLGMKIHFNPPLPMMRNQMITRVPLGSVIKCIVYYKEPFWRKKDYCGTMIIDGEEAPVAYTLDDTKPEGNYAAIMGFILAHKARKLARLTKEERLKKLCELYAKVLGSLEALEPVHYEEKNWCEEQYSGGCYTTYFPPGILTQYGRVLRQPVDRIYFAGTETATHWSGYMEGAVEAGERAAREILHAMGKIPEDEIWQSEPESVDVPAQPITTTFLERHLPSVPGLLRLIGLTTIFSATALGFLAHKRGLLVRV

plasma SSAO = target: T3, plasma SSAO (Homo sapiens, UniProt Q16853); assay: Multiple once daily dose study: plasma amine oxidase activity and methylamine; format: in vivo
T3 construct: from tissue; host or cells: plasma of healthy participants
T3 sequence (Q16853 27-763 limits assumed): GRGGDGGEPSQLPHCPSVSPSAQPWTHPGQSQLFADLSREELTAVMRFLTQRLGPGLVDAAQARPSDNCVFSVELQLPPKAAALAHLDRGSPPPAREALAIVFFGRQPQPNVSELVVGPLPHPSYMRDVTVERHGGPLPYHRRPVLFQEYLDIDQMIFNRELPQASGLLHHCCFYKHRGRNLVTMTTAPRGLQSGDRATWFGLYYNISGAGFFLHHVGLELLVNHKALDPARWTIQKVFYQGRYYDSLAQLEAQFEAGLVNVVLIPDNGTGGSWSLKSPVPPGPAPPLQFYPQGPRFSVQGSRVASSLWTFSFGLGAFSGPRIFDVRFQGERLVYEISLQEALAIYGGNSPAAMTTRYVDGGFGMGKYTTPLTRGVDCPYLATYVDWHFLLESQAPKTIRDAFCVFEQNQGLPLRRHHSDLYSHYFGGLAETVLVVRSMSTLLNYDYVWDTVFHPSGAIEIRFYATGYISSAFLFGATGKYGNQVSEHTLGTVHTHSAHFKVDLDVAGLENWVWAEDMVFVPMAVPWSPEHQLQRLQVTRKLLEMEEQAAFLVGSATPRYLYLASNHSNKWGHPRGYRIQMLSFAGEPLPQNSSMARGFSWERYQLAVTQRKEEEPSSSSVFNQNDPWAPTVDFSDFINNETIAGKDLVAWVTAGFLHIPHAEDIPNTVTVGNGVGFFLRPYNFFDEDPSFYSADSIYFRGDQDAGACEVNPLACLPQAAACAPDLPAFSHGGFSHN
Method: 3 groups of 8 healthy participants were randomized to receive multiple once daily (QD) doses of Compound 2 or matching placebo in a 3:1 ratio for 7 days (1 mg and 4 mg) or 14 days (10 mg). Plasma levels of Compound 2 and PD biomarkers (plasma amine oxidase activity and methylamine levels) were determined at pre-dose and various timepoints post-dose. Safety was assessed for up to 14 days after last dose.

SSAO = target: T4, SSAO (Homo sapiens, UniProt Q16853); assay: Biochemical activity, SSAO
T4 sequence (Q16853 1-763): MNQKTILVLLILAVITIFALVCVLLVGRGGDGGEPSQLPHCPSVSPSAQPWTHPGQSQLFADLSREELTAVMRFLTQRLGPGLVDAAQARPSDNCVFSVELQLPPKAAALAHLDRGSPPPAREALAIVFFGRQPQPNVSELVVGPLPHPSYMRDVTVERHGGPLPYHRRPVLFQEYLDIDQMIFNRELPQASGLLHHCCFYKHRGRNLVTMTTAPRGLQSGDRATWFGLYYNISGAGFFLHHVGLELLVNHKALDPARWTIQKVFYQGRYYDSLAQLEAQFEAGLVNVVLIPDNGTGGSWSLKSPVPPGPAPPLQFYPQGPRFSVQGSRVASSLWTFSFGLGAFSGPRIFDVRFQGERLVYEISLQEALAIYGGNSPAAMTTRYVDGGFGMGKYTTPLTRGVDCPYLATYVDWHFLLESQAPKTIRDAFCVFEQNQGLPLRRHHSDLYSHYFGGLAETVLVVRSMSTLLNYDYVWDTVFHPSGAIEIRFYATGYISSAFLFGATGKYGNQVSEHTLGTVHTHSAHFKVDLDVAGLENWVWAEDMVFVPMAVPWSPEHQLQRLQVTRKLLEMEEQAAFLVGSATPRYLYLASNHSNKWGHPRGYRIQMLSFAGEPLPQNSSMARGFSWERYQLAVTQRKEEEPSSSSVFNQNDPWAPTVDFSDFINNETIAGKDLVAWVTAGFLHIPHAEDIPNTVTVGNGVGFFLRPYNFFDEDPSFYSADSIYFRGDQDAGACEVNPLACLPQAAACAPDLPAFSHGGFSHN

Cn1cc(C(=O)O)c2ccc(N3CCC(OCc4c(-c5c(Cl)cccc5Cl)noc4C4CC4)CC3)cc21 [Compound 1]
tissues with the most radioactive material [1]: Liver, small intestine, and cecum had the most radioactive material

COC1CCN(c2ncc(OC/C(=C/F)CN)cn2)CC1 [Compound 2]
IC50 (MAO-A): > 50 µM
IC50 (MAO-B): > 50 µM
duration of continued suppression of plasma SSAO activity after last dose (plasma SSAO; 10 mg cohort (QD, 14 days)): up to 2 weeks
inhibition of plasma SSAO activity (plasma SSAO; Day 1, all dose cohorts): Near complete inhibition
Plasma methylamine levels (plasma SSAO; QD 1, 4, 10 mg): increased in a greater than dose proportional manner
IC50 (SSAO): 6.5 nM
